From US8415351B2 (priority 2007, dated 2013)

What was measured:
[1] = molecular target: T1, HCV polymerase 1B (Δ21 NS5B, BK) (Hepatitis C virus genotype 1b, UniProt P26663); experiment: biochemical
T1 construct: 20 to 50 nM Δ21 NS5B
Description: (§1) HCV Polymerase Inhibition Assay
(§2) Either two-fold serial dilutions (fractional inhibition assay) or a narrower range of dilutions spanning the IC50 of the inhibitor (tight binding assay) of the inhibitors were incubated with 20 mM Tris-Cl pH 7.4, 2 mM MnCl2, 1 mM dithiothreitol, 1 mM ethylene diamine tetraacetic acid (EDTA), 60 to 125 μM GTP and 20 to 50 nM Δ21 NS5B (HCV Strain 1B (BK, Genbank accession number M58335, or H77, Genbank accession number AF011751)) for 15 min at room temperature. The reaction was initiated by the addition of 20 μM CTP, 20 μM ATP, 1 μM ^3H-UTP (10 mCi/umol), 5 nM template RNA and 0.1 U/μl RNase inhibitor (RNasin, Promega), and allowed to proceed for 2 to 4 h at room temperature. Reaction volume was 50 μl. The reaction was terminated by the addition of 1 volume of 4 mM spermine in 10 mM Tris-Cl pH 8.0, 1 mM EDTA. After incubation for at least 15 min at room temperature, the precipitated RNA was captured by filtering through a GF/B filter (Millipore) in a 96 well format. The filter plate was washed three times with 200 μl each of 2 mM spermine, 10 mM Tris-Cl pH 8.0, 1 mM EDTA, and 2 times with ethanol. After air-drying, 30 μl of Microscint 20 scintillation cocktail (Packard) was added to each well, and the retained cpm were determined by scintillation counting. […] Retained cpm were plotted vs. inhibitor concentration and fit to equation 1 using non-linear regression (ref. 1) to obtain the IC50 values: Retained cpm=A[sqrt{(IC50+It−Et)^2+4*IC50*Et}−(IC50+It−Et)]
Ref. Morrison, J. F. and S. R. Stone. 1985. Approaches to the study and analysis of the inhibition of enzymes by slow- and tight-binding inhibitors. Comments Mol. Cell. Biophys. 2: 347-368.
The sequence of the template RNA used was: 5′-[…] […] […] […] […] […] […] […] […] […] […] […] […] […] […] […] […]-3′ (SEQ ID NO: 1)

[2] = test system: genotype 1b-Con1 subgenomic replicon cell line; experiment: microbe, parasite or virus in culture; type: cell-based, HCV; settings: Hepatitis C virus, read-out: EC50 1b
[3] = molecular target: T2, HCV polymerase 1A (Δ21 NS5B, H77) (Hepatitis C virus genotype 1a, UniProt P27958); experiment: biochemical; settings: IC50 1a
T2 construct: 20 to 50 nM Δ21 NS5B
Description: as §1
as §2, with “The” for “Either two-fold serial dilutions (fractional inhibition assay) or a narrower range of dilutions spanning the IC50 of the inhibitor (tight binding assay) of the inhibitors were incubated with 20 mM Tris-Cl pH 7.4, 2 mM MnCl2, 1 mM dithiothreitol, 1 mM ethylene diamine tetraacetic acid (EDTA), 60 to 125 μM GTP and 20 to 50 nM Δ21 NS5B (HCV Strain 1B (BK, Genbank accession number M58335, or H77, Genbank accession number AF011751)) for 15 min at room temperature. The”
Ref. Morrison, J. F. and S. R. Stone. […] Approaches to the study and analysis of the inhibition of enzymes by slow- and tight-binding inhibitors. Comments Mol. Cell. Biophys.
The sequence of the template RNA used was: 5′-[…]

T2 sequence (P27958 2421-2990, stated change not applied): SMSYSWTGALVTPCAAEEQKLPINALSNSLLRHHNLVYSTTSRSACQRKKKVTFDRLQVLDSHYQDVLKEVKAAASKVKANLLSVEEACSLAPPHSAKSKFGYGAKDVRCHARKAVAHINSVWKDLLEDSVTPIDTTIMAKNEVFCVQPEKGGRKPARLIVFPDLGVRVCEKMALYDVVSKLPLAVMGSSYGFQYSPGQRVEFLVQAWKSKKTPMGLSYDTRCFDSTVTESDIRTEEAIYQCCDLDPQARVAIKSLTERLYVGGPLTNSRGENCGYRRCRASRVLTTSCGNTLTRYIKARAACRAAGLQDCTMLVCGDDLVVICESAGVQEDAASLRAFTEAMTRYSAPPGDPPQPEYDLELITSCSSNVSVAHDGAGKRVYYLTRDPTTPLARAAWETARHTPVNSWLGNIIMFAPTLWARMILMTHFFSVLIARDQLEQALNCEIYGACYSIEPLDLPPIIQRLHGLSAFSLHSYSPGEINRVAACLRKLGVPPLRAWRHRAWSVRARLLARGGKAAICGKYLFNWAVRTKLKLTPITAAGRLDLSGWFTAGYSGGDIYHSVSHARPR
T1 sequence (P26663 2420-2989, stated change not applied): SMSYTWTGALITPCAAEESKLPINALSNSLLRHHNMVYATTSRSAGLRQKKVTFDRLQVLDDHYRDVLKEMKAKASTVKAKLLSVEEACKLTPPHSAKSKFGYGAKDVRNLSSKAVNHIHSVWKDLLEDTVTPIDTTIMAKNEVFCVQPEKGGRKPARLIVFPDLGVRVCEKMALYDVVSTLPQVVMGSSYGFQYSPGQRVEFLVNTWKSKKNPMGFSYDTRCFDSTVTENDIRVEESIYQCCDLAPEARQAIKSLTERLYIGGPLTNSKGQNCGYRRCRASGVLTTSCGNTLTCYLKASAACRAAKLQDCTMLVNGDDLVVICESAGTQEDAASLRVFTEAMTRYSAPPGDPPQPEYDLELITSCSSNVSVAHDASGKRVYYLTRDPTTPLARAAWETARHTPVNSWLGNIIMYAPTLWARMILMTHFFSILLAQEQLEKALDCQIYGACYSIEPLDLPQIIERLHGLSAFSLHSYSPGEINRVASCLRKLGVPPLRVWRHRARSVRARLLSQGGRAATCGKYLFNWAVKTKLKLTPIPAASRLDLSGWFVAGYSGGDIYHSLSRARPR

COc1c(C#Cc2ccc(NS(C)(=O)=O)cc2Cl)cc(-n2ccc(=O)[nH]c2=O)cc1C(C)(C)C [IB-L2-1.2, N-(4-((3-tert-butyl-5-(2,4-dioxo-3,4-dihydropyrimidin-1(2H)-yl)-2-methoxyphenyl)ethynyl)-3-chlorophenyl)methanesulfonamide]
IC50 [1]: 10 to 100 nM | EC50 [2]: < 10 nM | IC50 [3]: < 10 nM

COc1c(NC(=O)c2ccc(NS(C)(=O)=O)cc2)cc(N2CCC(=O)NC2=O)cc1C(C)(C)C [IA-L4-1.9, N-(3-tert-butyl-5-(2,4-dioxotetrahydropyrimidin-1(2H)-yl)-2-methoxyphenyl)-4-(methylsulfonamido)benzamide]
IC50 [1]: 10 to 100 nM | EC50 [2]: 10 to 100 nM | IC50 [3]: 10 to 100 nM

COC(=O)c1cc(NS(C)(=O)=O)ccc1C#Cc1cc(-n2ccc(=O)[nH]c2=O)cc(C(C)(C)C)c1OC [IB-L2-1.7, methyl 2-((3-tert-butyl-5-(2,4-dioxo-3,4-dihydropyrimidin-1(2H)-yl)-2-methoxyphenyl)-ethynyl)-5-(methylsulfonamido)benzoate]
IC50 [1]: 10 to 100 nM | EC50 [2]: < 10 nM | IC50 [3]: < 10 nM

COc1c(C#Cc2cc(F)c(NS(C)(=O)=O)c(F)c2)cc(-n2ccc(=O)[nH]c2=O)cc1C(C)(C)C [IB-L2-1.4, N-(4-((3-tert-butyl-5-(2,4-dioxo-3,4-dihydropyrimidin-1(2H)-yl)-2-methoxyphenyl)ethynyl)-2,6-difluorophenyl)methanesulfonamide]
IC50 [1]: 10 to 100 nM | EC50 [2]: 100 to 1000 nM | IC50 [3]: 10 to 100 nM

COc1c(C(=O)Nc2ccc(NS(=O)(=O)CCN3CCOCC3)cc2)cc(N2CCC(=O)NC2=O)cc1C(C)(C)C [IA-L3-1.58, 3-tert-butyl-5-(2,4-dioxotetrahydropyrimidin-1(2H)-yl)-2-methoxy-N-(4-(2-morpholinoethylsulfonamido)phenyl)benzamide]
IC50 [1]: 100 to 1000 nM | EC50 [2]: 100 to 1000 nM | IC50 [3]: 100 to 1000 nM

COc1c(C(=O)Nc2ccc(NS(=O)(=O)CCN(CCO)CCO)cc2)cc(N2CCC(=O)NC2=O)cc1C(C)(C)C [IA-L3-1.56, N-(4-(2-(bis(2-hydroxyethyl)amino)ethylsulfonamido)phenyl)-3-tert-butyl-5-(2,4-dioxo-tetrahydropyrimidin-1(2H)-yl)-2-methoxybenzamide]
IC50 [1]: 100 to 1000 nM | EC50 [2]: 100 to 1000 nM | IC50 [3]: 100 to 1000 nM

COc1c(C(=O)Nc2ccc(NS(=O)(=O)CCO)cc2)cc(N2CCC(=O)NC2=O)cc1C(C)(C)C [IA-L3-1.122, 3-tert-butyl-5-(2,4-dioxotetrahydropyrimidin-1(2H)-yl)-N-(4-(2-hydroxyethylsulfonamido)phenyl)-2-methoxybenzamide]
IC50 [1]: 10 to 100 nM | EC50 [2]: 10 to 100 nM | IC50 [3]: 10 to 100 nM

CC(C)(C)c1cc(N2CCC(=O)NC2=O)cc(C(=O)Nc2ccc(NS(=O)(=O)CCN3CCOCC3)cc2)c1O [IA-L3-1.14, 3-tert-butyl-5-(2,4-dioxotetrahydropyrimidin-1(2H)-yl)-2-hydroxy-N-(4-(2-morpholinoethylsulfonamido)phenyl)benzamide]
IC50 [1]: < 10 nM | EC50 [2]: 100 to 1000 nM | IC50 [3]: 10 to 100 nM

CC(C)(C)OC(=O)NC1CCN(Cc2cc(N3CCC(=O)NC3=O)cc(C(C)(C)C)c2O)CC1 [IA-L5-1-1.1, {1-[3-tert-butyl-5-(2,4-dioxo-tetrahydro-pyrimidin-1-yl)-2-hydroxy-benzyl]-piperidin-4-yl}-carbamic acid tert-butyl ester]
IC50 [1]: > 1000 nM | IC50 [3]: > 1000 nM

COc1c(C(=O)Nc2ccc(NS(C)(=O)=O)nc2)cc(N2CCC(=O)NC2=O)cc1C(C)(C)C [IA-L3-1.99, 3-tert-butyl-5-(2,4-dioxotetrahydropyrimidin-1(2H)-yl)-2-methoxy-N-(6-(methylsulfonamido)pyridin-3-yl)benzamide]
IC50 [1]: 100 to 1000 nM | EC50 [2]: 100 to 1000 nM | IC50 [3]: 10 to 100 nM

CC(C)(C)OC(=O)NC1CCN(Cc2cc(N3CCC(=O)NC3=O)cc(C(C)(C)C)c2O)C1 (stereo not shown) [IA-L5-1-1.12, {1-[3-tert-butyl-5-(2,4-dioxo-tetrahydro-pyrimidin-1-yl)-2-hydroxy-benzyl]-pyrrolidin-3-yl}-carbamic acid tert-butyl ester]
IC50 [1]: > 1000 nM | IC50 [3]: > 1000 nM

COCCS(=O)(=O)Nc1ccc(NC(=O)c2cc(N3CCC(=O)NC3=O)cc(C(C)(C)C)c2OC)cc1 [IA-L3-1.54, 3-tert-butyl-5-(2,4-dioxotetrahydropyrimidin-1(2H)-yl)-2-methoxy-N-(4-(2-methoxyethylsulfonamido)phenyl)benzamide]
IC50 [1]: 100 to 1000 nM | EC50 [2]: 10 to 100 nM | IC50 [3]: 10 to 100 nM

COc1c(C(=O)Nc2ccc(N(C)S(C)(=O)=O)cc2)cc(N2CCC(=O)N(C)C2=O)cc1C(C)(C)C [IA-L3-1.25, 3-tert-butyl-N-[4-(methanesulfonyl-methyl-amino)-phenyl]-2-methoxy-5-(3-methyl-2,4-dioxo-tetrahydro-pyrimidin-1-yl)-benzamide]
IC50 [1]: > 1000 nM | IC50 [3]: > 1000 nM

COc1c(C(=O)Nc2ccc(NC(=O)COC(C)=O)cc2)cc(N2CCC(=O)NC2=O)cc1C(C)(C)C [IA-L3-1.48, 2-(4-(3-tert-butyl-5-(2,4-dioxotetrahydropyrimidin-1(2H)-yl)-2-methoxybenzamido)phenyl-amino)-2-oxoethyl acetate]
IC50 [1]: > 1000 nM | IC50 [3]: > 1000 nM

CC1CN(Cc2cc(N3CCC(=O)NC3=O)cc(C(C)(C)C)c2O)CC(C)O1 (stereo not shown) [IA-L5-1-1.13, 1-(3-tert-butyl-5-((2,6-dimethylmorpholino)methyl)-4-hydroxyphenyl)dihydro pyrimidine-2,4(1H,3H)-dione 2,2,2-trifluoroacetate]
IC50 [1]: > 1000 nM | IC50 [3]: > 1000 nM

C=CCN(c1ccc(NC(=O)c2cc(N3CCC(=O)NC3=O)cc(C(C)(C)C)c2OC)cc1)S(C)(=O)=O [IA-L3-1.108, N-(4-(N-allylmethylsulfonamido)phenyl)-3-tert-butyl-5-(2,4-dioxotetrahydropyrimidin-1(2H)-yl)-2-methoxybenzamide]
IC50 [1]: > 1000 nM | IC50 [3]: > 1000 nM

COc1c(C(=O)Nc2ccc(S(C)(=O)=O)cc2)cc(N2CCC(=O)NC2=O)cc1C(C)(C)C [IA-L3-1.78, 3-tert-butyl-5-(2,4-dioxotetrahydropyrimidin-1(2H)-yl)-2-methoxy-N-(4-(methylsulfonyl)phenyl)benzamide]
IC50 [1]: > 1000 nM | IC50 [3]: > 1000 nM

CN(C(=O)c1cc(N2CCC(=O)NC2=O)cc(C(C)(C)C)c1O)c1ccccc1 [IA-L3-1.1, 3-tert-butyl-5-(2,4-dioxotetrahydropyrimidin-1(2H)-yl)-2-hydroxy-N-methyl-N-phenyl-benzamide]
IC50 [1]: > 1000 nM | IC50 [3]: > 1000 nM

COc1c(C(=O)Nc2ccccc2S(C)(=O)=O)cc(N2CCC(=O)NC2=O)cc1C(C)(C)C [IA-L3-1.79, 3-tert-butyl-5-(2,4-dioxotetrahydropyrimidin-1(2H)-yl)-2-methoxy-N-(2-(methylsulfonyl)phenyl)benzamide]
IC50 [1]: > 1000 nM | IC50 [3]: > 1000 nM

CC(C)(C)OC(=O)N1CCN(Cc2cc(N3CCC(=O)NC3=O)cc(C(C)(C)C)c2O)CC1 [IA-L5-1-1.10, 4-[3-tert-butyl-5-(2,4-dioxo-tetrahydro-pyrimidin-1-yl)-2-hydroxy-benzyl]-piperazine-1-carboxylic acid tert-butyl ester]
IC50 [1]: > 1000 nM | IC50 [3]: > 1000 nM

C=CCN1C(=O)CCN(c2cc(C(=O)Nc3ccc(N(CC=C)S(C)(=O)=O)cc3)c(OC)c(C(C)(C)C)c2)C1=O [IA-L3-1.118, 5-(3-allyl-2,4-dioxotetrahydropyrimidin-1(2H)-yl)-N-(4-(N-allylmethylsulfonamido)phenyl)-3-tert-butyl-2-methoxybenzamide]
IC50 [1]: > 1000 nM | IC50 [3]: > 1000 nM
